From patent US9974931B2, “Pharmaceutical-coated medical products, the production thereof and the use thereof” (Invatec Technology Center Gmbh, priority 2007, dated 2018) come the findings set out here.

The nature of data set [1]: Coating of balloon catheters with methotrexate: content of active substance. In kind it is physicochemical. The note with it: balloons 3.5 to 19 mm; 2×16 μl coating plus additional coat with Ultravist-370 + HES + methotrexate. As to the method:
30 mg methotrexic acid+100 μl sodium bicarbonate (7.5%)+900 μl methanol (coating with 2×16 μl, corresponding to ˜4 μg/mm^2 balloon surface)
Additional coat: Ultravist®-370+hydroxyethyl starch (HES) 10% (1:1 by volume)+30 mg methotrexate/ml applied by immersing for a short time
Stents: stainless steel, balloon-expandable 3.5 to 18 mm
Content of active substance: 5.3 μg/mm^2 balloon surface

For data set [2], the system named is overstretched coronary arteries in pigs. The data set is described as follows: Efficacy and tolerance of coated balloon catheters with stent implantation, quantitative angiography after 4 weeks. It is filed as in vivo. The note with it: pig coronary artery, n = 8; for Late lumen loss: within 4 weeks. The source says: The efficacy and tolerance of coated balloon catheters according to example 5 in overstretched coronary arteries in pigs
Method: Scheller B, Speck U, Abramjuk C, Bernhardt U, Böhm M, Nickenig G: Paclitaxel balloon coating—a novel method for prevention and therapy of restenosis. Circulation 2004; 110: 810-4
Stents were implanted into pigs with the help of methotrexate coated or uncoated (control) balloon catheters. After 4 weeks the extent of the constriction of the lumen in the area of the stent was measured using quantitative angiography.
The late lumen loss means the amount by which the original coronary artery lumen diameter decreases due to excessive cell growth within 4 weeks. With blood flowing through them the original coronary artery lumen diameters were 2.64 mm and 2.41 mm respectively. In the control group (no methotrexate) the late lumen loss was 1.1 mm and in the group treated with methotrexate the late lumen loss was 0.67 mm.

The nature of data set [3]: Coating of hydrophilic and non-hydrophilic balloon catheters with paclitaxel by immersion: paclitaxel content on balloon. It is filed as physicochemical. The settings on record: 4 immersions, 30 mg paclitaxel/ml. As to the method: Coating solution: 30 mg paclitaxel/ml in acetone 89%, ethanol 9%, Ultravist®-370 (Schering AG, Berlin) 2%, by immersing it 4 times and allowing it to dry between each immersion: […]

Data set [4] in a line: Loss of the active substance during expansion in the dry state (adhesion test). It is filed as physicochemical. The source says: The active substance can, for example, be released in the form of particles and can then become effective by dissolution in the course of a longer period of time; • Low molecular weight: Substances with a molecular weight less than 5000 Da, and preferably <2000 Da, and particularly preferred <1000 Da; • Hydrophilic/hydrophilised balloon membrane: hydrophilic membranes consisting of materials which can be wetted with water or with hydrophilic solvents; hydrophilised membranes are membranes made out nylon, for example, whose surfaces were changed by subsequent treatment into a state that can be wetted with water or other hydrophilic solvents. • Hydrophilic or hydrophilised membranes are not to be confused with membranes which are provided with an additional hydrophilic layer; • Hydrophilically-coated balloon membrane: A membrane, which contains an additionally applied layer, which can itself be wetted with water; • Open on the surface: Pharmaceuticals or additives which are not incorporated into the balloon membrane or which are not incorporated into any layers that are firmly attached to the balloon membrane. For example, they are not incorporated in any polymeric water-insoluble coatings particularly any hydrogels that may not become detached. […] The balloons are expanded when dry and shaken for 5 seconds in a glass vessel. More than 75% of the dose remains on the balloon; • Highly volatile: Solvents with a boiling point below 300° C., and preferably below 160° C., with below 100° C. being particularly preferred.
Each balloon was coated in the folded state with 3 to 4 μg/mm^2 paclitaxel and was tested for loss of the active substance during expansion in the dry state as defined under ‘Definitions’.

In the case of `CN(Cc1cnc2nc(N)nc(N)c2n1)c1ccc(C(=O)N[C@@H](CCC(=O)O)C(=O)O)cc1` [Methotrexate, methotrexate], the “Content of active substance” value in data set [1] was determined as 5.3 μg/mm^2 balloon surface. Further, the “Minimum vessel diameter 28d” value in data set [2] (28 d) amounted to 1.74 ± 0.41 mm. For the same compound, the Late lumen loss in data set [2] worked out at 0.67 ± 0.39 mm; in data set [2] (listed as methotrexate) it was 0.67 mm.
For `CC(=O)O[C@H]1C(=O)[C@@]2(C)[C@H]([C@H](OC(=O)c3ccccc3)[C@]3(O)C[C@H](OC(=O)[C@H](O)[C@@H](NC(=O)c4ccccc4)c4ccccc4)C(C)=C1C3(C)C)[C@]1(OC(C)=O)CO[C@@H]1C[C@@H]2O` [paclitaxel], the “μg paclitaxel/mm^2 balloon surface” value in data set [3] (hydrophilic catheter, 3.5 to 15 mm, 5 balloon catheters) worked out at 2.8 μg/mm^2; in data set [3] (hydrophilic catheter, 3.5 to 20 mm, 8 balloon catheters), 5.6 μg/mm^2; in data set [3] (standard catheter, 3.5 to 15 mm, 5 balloon catheters), 3.4 μg/mm^2; in data set [3] (standard catheter, 3.5 to 20 mm, 8 balloon catheters), 5.0 μg/mm^2. Besides, the “loss of the active substance during expansion in the dry state” value turned out to be 4% in data set [4] (series 1, coating solvent Acetic acid); 21% in data set [4] (series 1, coating solvent Acetone, 3 to 4 μg/mm^2, folded); 24% in data set [4] (series 1, coating solvent Dimethylformamide); 66% in data set [4] (series 1, coating solvent Dimethylsulfoxide); 12% in data set [4] (series 1, coating solvent Dioxane); 19% in data set [4] (series 1, coating solvent Isopropanol). In addition, the “loss of the active substance during expansion in the dry state” value in data set [4] (series 1, coating solvent Tetrahydrofuran) turned out to be 4%; in data set [4] (series 2, Tetrahydrofuran with 10% water by volume), 3%; in data set [4] (series 2, Tetrahydrofuran with 20% water by volume), 16%; in data set [4] (series 2, Tetrahydrofuran with 37% water by volume) it was 37%; in data set [4] (series 2, coating solvent Tetrahydrofuran) it was 3%.
